For series [1] the following is noted: WO2008143667A1, cited from earlier work.
Series [2] can be described thus: Stability studies of crystal Form S, followed by XRPD. Type of series: physicochemical. The procedure: XRD: X-ray powder diffraction analyses were carried out on a PANalytical Empyrean X-ray powder diffractometer using Cu K alpha radiation. The instrument was equipped with a line focus X-ray tube, and the voltage and amperage were set to 45 kV and 40 mA respectively. The scanning rate was set as 10 second per step and step size is set as 0.01°. The diffractometer was equipped with Pixcel^1D solid state detector and rotating sample stage. X-ray diffractometer was used to record diffractogram from 4° to 40° (2-theta).

This is an account of results in US20180208622A1, “STABLE CRYSTALLINE FORM OF REGADENOSON” (SUN PHARMACEUTICAL INDUSTRIES LIMITED, priority 2015, published 2018).

Molecules are shown by their SMILES.

For the compound `CNC(=O)c1cnn(-c2nc(N)c3ncn([C@@H]4O[C@H](CO)[C@@H](O)[C@H]4O)c3n2)c1` [Form A, adenosine, 2-[4-[(methylamino)carbonyl]-1H-pyrazol-1-yl]], the “stability of the crystalline form” value in series [1] (among Form A, Form B, Form C and amorphous product) is “most stable form”.

As for `CNC(=O)c1cnn(-c2nc(N)c3ncn([C@@H]4O[C@H](CO)C(O)C4O)c3n2)c1` (some centres unmarked) [Form S, adenosine, 2-[4-[(methylamino)carbonyl]-1H-pyrazol-1-yl]], the “change in XRPD under stability conditions” value in series [2] (25° C. and 60% relative humidity for more than 6 months (FIG. 3)) is “no significant change”. Further, in series [2] (40° C. and 75% relative humidity for more than 2 months (FIG. 2)), the “change in XRPD in accelerated stability studies” value was “did not change significantly”. Besides, the stability when stored result in series [2] (stored at 25° C. and 60% relative humidity for at least 6 months) is “stable”.

For `CNC(=O)c1cnn(-c2nc(N)c3ncn([C@@H]4O[C@H](CO)[C@@H](O)[C@H]4O)c3n2)c1` [polymorph C, adenosine, 2-[4-[(methylamino)carbonyl]-1H-pyrazol-1-yl]], the “behaviour at elevated temperatures” value in series [1] (elevated temperatures) is “desolvates to an unstable form”.
